Reference: US11084976B2, “Method and process of use of binary compositions for acidizing subterranean formations” (Halliburton Energy Services, Inc., priority 2018, dated 2021)
Values after ≈ are worked out from the molar mass of the structure shown.

Key:
[1] = Solubility of PMIDA in water and HCl (saturation concentrations); type: physicochemical; settings: for solubility thermodynamic: water, thermodynamic from solid, H2O
Excerpt: In certain embodiments, the organic compound comprising a phosphonoalkyl moiety is at least partially solubilized in the organic or mineral acid. As used herein, the term “at least partially solubilized,” and grammatical variants thereof, with reference to the organic compound comprising a phosphonoalkyl moiety in the organic or mineral acid refers to dissolution of at least about 2% weight per volume (w/v) of the organic compound comprising a phosphonoalkyl moiety in the organic or mineral acid at room temperature. As used herein, the term “room temperature” refers to about 15° C. to about 25° C. The remaining excess organic compound comprising a phosphonoalkyl moiety may be suspended in the organic or mineral acid while it is undergoing dynamic fluid flow at room temperature. As temperatures increase (e.g., as the treatment fluid is introduced into a subterranean formation and encounters downhole temperatures), the solubility of the organic compound comprising a phosphonoalkyl moiety in the organic or mineral acid may increase. Indeed, the solubility of the organic compound comprising a phosphonoalkyl moiety increases as a function of acid concentration, and temperature.

[2] = PMIDA added to base solubility test; type: physicochemical; settings: base added to PMIDA in solid form or high concentrated slurry
Procedure: During the testing, however, it was observed that adding the base to the PMIDA in its solid form, or in a high concentrated slurry, was unsuccessful.
The following procedure was followed to generate several samples. First, a quantity of a known base in water was prepared. Next, PMIDA was added to the solution at a rate slow enough to ensure that no boiling of the fluid occurred. As discussed above, it is believed that the addition of the PMIDA to the base may result in an exothermic reaction that may aid in additional solubilizing of PMIDA due to the increase in the fluid temperature. After complete addition and thorough mixing, the fluid was cooled, and the volume, weight, and pH were measured. Finally, the concentration and density of the samples were determined.

Compound: O=C(O)CN(CC(=O)O)CP(=O)(O)O [PMIDA, N-(phosphonomethyl)iminodiacetic acid]
- Solubility Average ([1]; Atm., 7.5% HCl, 200° F.): 10.00 w/v %
- solubility thermodynamic ([1]; 37.8 °C, 200 psi, 100° F.): 18.3 mg/mL (≈ 80.6 mM)
- solubility thermodynamic ([1]; 37.8 °C, Atm., 100° F.): 22.6 mg/mL (≈ 99.5 mM)
- solubility thermodynamic ([1]; 65.6 °C, 200 psi, 150° F.): 28.7 mg/mL (≈ 126 mM)
- solubility thermodynamic ([1]; 65.6 °C, Atm., 150° F.): 31.9 mg/mL (≈ 140 mM)
- solubility thermodynamic ([1]; 93.3 °C, 200 psi, 200° F.): 51.1 mg/mL (≈ 225 mM)
- solubility thermodynamic ([1]; 93.3 °C, Atm., 200° F.): 47.9 mg/mL (≈ 211 mM)
- Solubility in the base mixture [2]: substantially insoluble
